Structures are written as SMILES. Several values for one entry are separate records, joined by “and”; a condition that tells them apart may be missing. Equal values may be shown once.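 Test compounds were applied to cells in 96-well plates for 48 hours at 5 doses. Here, GI50 denotes the concentration required for 50% inhibition of growth. The concentration for full growth arrest is given as TGI.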

The record followed here is PubChem BioAssay (NCI).

Among the test systems are SK-MEL-2 melanoma; NCI-H23 lung; SW-620 colon; SK-MEL-5 melanoma; HT29 colon; A549 NSCLC; K-562 leukemia; HOP-92 NSCLC; IGROV1 ovarian; CAKI-1 renal.
What all share (assay): inhibition of tumour cell growth, NCI panel, 48 h

For `O=C(/C=C/c1ccccc1)NC1C=Nc2ccc([N+](=O)[O-])cc2NC1=O` (stereo unspecified), the TGI in the test with SK-MEL-2 melanoma, with NCI-H23 lung, with SW-620 colon, with SK-MEL-5 melanoma, in the test with HT29 colon and in the test on A549 NSCLC was greater than 100 µM each time. For the same molecule, the TGI in the test with K-562 leukemia, in the test on HOP-92 NSCLC, in the test with IGROV1 ovarian and in the test with CAKI-1 renal was greater than 100 µM in each case.
`CC(C)=CC[C@@H]1CC2(CC=C(C)C)C(=O)C(OC3(C(=O)c4ccccc4)C(=O)C4(CC=C(C)C)C[C@@H](CC=C(C)C)C(C)(C)C(CC=C(C)C)(C4=O)C3=O)(C(=O)c3ccccc3)C(=O)C(CC=C(C)C)(C2=O)C1(C)C` (stereo partly specified): the GI50 with SK-MEL-2 melanoma is 1.01 µM; in the test with NCI-H23 lung, 1.36 µM; in the test on SW-620 colon, 1.92 µM; in the test on SK-MEL-5 melanoma it was 0.806 µM; in the test with HT29 colon, 1.41 µM; with A549 NSCLC it was 1.73 µM. The GI50 in the test on K-562 leukemia was 1.72 µM; with HOP-92 NSCLC, 1.08 µM; in the test with IGROV1 ovarian, 1.63 µM; in the test on CAKI-1 renal it was 1.49 µM. The TGI in the test on SK-MEL-2 melanoma is 3.04 µM; with NCI-H23 lung, 4.48 µM; with SW-620 colon, 8.29 µM; in the test with SK-MEL-5 melanoma, 1.58 µM; in the test on HT29 colon, 4.31 µM; in the test with A549 NSCLC it was 6.05 µM. Further, the TGI in the test with K-562 leukemia turned out to be 50 µM; with HOP-92 NSCLC it was 2.86 µM; in the test on IGROV1 ovarian, 7 µM; in the test with CAKI-1 renal, 5.95 µM.
As to `C[N+]1([O-])C2CCC1CC(OC(=O)C(CO)c1ccccc1)C2` (stereo unspecified), the TGI in the test on SK-MEL-2 melanoma, with NCI-H23 lung, in the test on SW-620 colon, in the test on SK-MEL-5 melanoma, in the test on HT29 colon and with A549 NSCLC was greater than 100 µM in each case. Also, the TGI in the test on K-562 leukemia, in the test with HOP-92 NSCLC, with IGROV1 ovarian and in the test with CAKI-1 renal was greater than 100 µM each time.
As to `O=C1NC(=O)C(c2c[nH]c3ccccc23)=C1c1c[nH]c2ccccc12`, the GI50 with SK-MEL-2 melanoma is 12 µM; in the test on NCI-H23 lung, 14.7 µM; in the test with SW-620 colon, 13.3 µM; in the test with SK-MEL-5 melanoma, 5.96 µM; with HT29 colon, 11.2 µM; with A549 NSCLC, 10.7 µM. Moreover, the GI50 was 11.1 µM with K-562 leukemia, 5.72 µM in the test with HOP-92 NSCLC, greater than 20.9 µM in the test on IGROV1 ovarian and 7.37 µM in the test on CAKI-1 renal. In addition, the TGI is greater than 25 µM in the test with SK-MEL-2 melanoma; greater than 25 µM in the test with NCI-H23 lung; greater than 25 µM in the test on SW-620 colon; 20.2 µM with SK-MEL-5 melanoma; greater than 25 µM in the test with HT29 colon; greater than 25 µM in the test on A549 NSCLC. In addition, the TGI in the test with K-562 leukemia, in the test on HOP-92 NSCLC, in the test with IGROV1 ovarian and in the test on CAKI-1 renal was greater than 25 µM throughout.
With `Cc1c(Cl)cccc1C(=O)Nc1nc2c(s1)CN(C(=O)Nc1cccc(C(F)(F)F)c1)CC2`, the GI50 in the test with SK-MEL-2 melanoma was 0.283 µM; in the test on NCI-H23 lung, 0.234 µM; in the test on SW-620 colon, 0.175 µM; in the test on SK-MEL-5 melanoma, 0.182 µM; with HT29 colon, 0.173 µM; in the test with A549 NSCLC, 0.33 µM. For the same molecule, the GI50 in the test on K-562 leukemia is 0.131 µM; in the test on HOP-92 NSCLC it was 0.18 µM; in the test on IGROV1 ovarian, 0.29 µM; with CAKI-1 renal, 0.216 µM. Moreover, the TGI in the test on SK-MEL-2 melanoma was greater than 50 µM; in the test on NCI-H23 lung, greater than 50 µM; in the test with SW-620 colon it was greater than 50 µM; in the test on SK-MEL-5 melanoma it was 3.75 µM; in the test with HT29 colon, greater than 23.3 µM; in the test on A549 NSCLC, greater than 50 µM. Also, the TGI is greater than 50 µM in the test on K-562 leukemia, 15.6 µM with HOP-92 NSCLC, greater than 50 µM with IGROV1 ovarian and greater than 50 µM with CAKI-1 renal.
Regarding `Cc1ccc(N)c(S)c1`, the TGI came out at 31.5 µM in the test on SK-MEL-2 melanoma; 36.3 µM in the test on NCI-H23 lung; 38.7 µM with SW-620 colon; 30.6 µM in the test with SK-MEL-5 melanoma; 33.8 µM in the test on HT29 colon; 40.6 µM in the test on A549 NSCLC. Further, the TGI was determined as 65.1 µM in the test with K-562 leukemia, 30.2 µM in the test with HOP-92 NSCLC, 31.5 µM in the test on IGROV1 ovarian and 85 µM in the test with CAKI-1 renal.
For the molecule `C=C(CO)C(=O)OC1CC(=C)C2CC(O)C(C)C2C2OC(=O)C(=C)C12` (stereo unspecified), the TGI in the test with SK-MEL-2 melanoma was 32 µM; in the test on NCI-H23 lung, greater than 100 µM; in the test with SW-620 colon, 92.7 µM; in the test on SK-MEL-5 melanoma it was 50.9 µM; in the test on HT29 colon, 53.9 µM; with A549 NSCLC, greater than 100 µM. Moreover, the TGI in the test on K-562 leukemia worked out at 82.2 µM; with HOP-92 NSCLC, 77.6 µM; with IGROV1 ovarian, 39.3 µM; with CAKI-1 renal, 36.6 µM.
As to `CCCCn1c(=O)[nH]c(N)c([C@@H]2c3c([nH]c(=O)n(CCCC)c3=O)Oc3ccc4ccccc4c32)c1=O`, the GI50 was 2.51 µM in the test with SK-MEL-2 melanoma; 1.73 µM in the test with NCI-H23 lung; 0.37 µM in the test on SW-620 colon; 3.06 µM in the test with SK-MEL-5 melanoma; 2.46 µM with HT29 colon; 11.5 µM in the test on A549 NSCLC. The GI50 in the test on K-562 leukemia was 12.2 µM; with HOP-92 NSCLC it was 2 µM; in the test with IGROV1 ovarian, 1.89 µM; in the test on CAKI-1 renal, 1.62 µM. The TGI was 7.34 µM in the test on SK-MEL-2 melanoma; 3.7 µM in the test on NCI-H23 lung; 1.18 µM with SW-620 colon; 10.7 µM in the test with SK-MEL-5 melanoma; 4.73 µM with HT29 colon; 24.5 µM in the test on A549 NSCLC. Also, the TGI was 51.2 µM in the test on K-562 leukemia, 6.5 µM in the test on HOP-92 NSCLC, 4.78 µM with IGROV1 ovarian and 3.26 µM in the test with CAKI-1 renal.
Take `CC[C@@]1(OP(=O)(O)O)C(=O)OCc2c1cc1n(c2=O)Cc2cc3ccccc3nc2-1`: the GI50 was 1.85 µM in the test with SK-MEL-2 melanoma; 0.0827 µM in the test on NCI-H23 lung; 0.126 µM with SK-MEL-5 melanoma; 0.428 µM with HT29 colon; 0.12 µM with A549 NSCLC; 0.572 µM with K-562 leukemia. Also, the values for the GI50 in the test on HOP-92 NSCLC and in the test with IGROV1 ovarian were 1.24 µM and 0.377 µM, respectively. Also, the TGI is 7.36 µM and 5.05 µM in the test on SK-MEL-2 melanoma; 9.44 µM with SW-620 colon; 0.458 µM and 0.46 µM with SK-MEL-5 melanoma; 7.33 µM and 12.3 µM in the test with A549 NSCLC; greater than 100 µM in the test on K-562 leukemia; 2.7 µM and 6.46 µM with HOP-92 NSCLC. Also, the TGI in the test with IGROV1 ovarian is 4.51 µM and 5.58 µM; with CAKI-1 renal, 1.04 µM.
